Activity calls are given as the source filed them. No rule for the calls is given here.
Tested on: GENE-TOX genotoxicity assays, various organisms and cells
Experiment: GENE-TOX mutagenicity studies
Conditions: for call: Assay Type: In vivo carcinogenicity studies
[1] = Species/Cell Type: Saccharomyces cerevisiae, Assay Type: Mitotic recombination or gene conversion, Assay Code: YEC+, Evaluation Type: Evaluation A (Pre-1980)
[2] = Species/Cell Type: Nonhuman, Assay Code: CCG+, Evaluation Type: Evaluation A (Pre-1980)
[3] = Species/Cell Type: Saccharomyces cerevisiae, Assay Type: Mitotic recombination or gene conversion, Assay Code: YEC-, Evaluation Type: Evaluation A (Pre-1980)
[4] = Species/Cell Type: Salmonella typhimurium (one or more of the five standard strains: TA98, TA100, TA1535, TA1537, and TA1538), Assay Type: Histidine reverse gene mutation, Ames assay, Assay Code: SAL+, Evaluation Type: Evaluation A (Pre-1980)

CN(C)c1ccc2cc3ccc(N(C)C)cc3nc2c1
mutagenic call (Species/Cell Type: Allium cepa, Assay Type: Chromosome aberrations, Assay Code: ALC+D, Dose Response: With dose response, Evaluation Type: Evaluation A (Pre-1980)): active; positive
mutagenic call (Species/Cell Type: Bacillus subtilis (H17 vs M45T), Assay Type: Rec-assay, spot test, DNA effects (bacterial DNA repair), Assay Code: REXT, Evaluation Type: Evaluation A (Pre-1980)): no conclusion
mutagenic call (Species/Cell Type: Chinese hamster ovary (CHO) cells, Assay Type: Forward gene mutation at the HPRT locus, Assay Code: CHO+, Evaluation Type: Evaluation B (Post-1980)): active; positive
mutagenic call (Species/Cell Type: Drosophila melanogaster, Assay Type: Sex-linked recessive lethal gene mutation, Assay Code: SRLT, Evaluation Type: Evaluation A (Pre-1980)): no conclusion
mutagenic call (Species/Cell Type: Escherichia coli polA (W3119 vs P3478), Assay Type: Rec-assay, DNA effects (bacterial DNA repair), Assay Code: RE1+, Evaluation Type: Evaluation A (Pre-1980)): active; positive
mutagenic call (Species/Cell Type: Human lymphocytes, Assay Type: Sister-chromatid exchange (SCE) in vitro, Assay Code: SCL+, Evaluation Type: Evaluation B (Post-1980)): active; positive
mutagenic call (Species/Cell Type: Human, Assay Type: Sister-chromatid exchange (SCE) in vitro, Assay Code: SC1+, Evaluation Type: Evaluation B (Post-1980)): active; positive
mutagenic call (Species/Cell Type: Mammalian polychromatic erythrocytes, Assay Type: Micronucleus test, chromosome aberrations, Assay Code: MNT+, Evaluation Type: Evaluation B (Post-1980)): active; positive
mutagenic call (Species/Cell Type: Mouse, Sex: Female, Assay Type: Spot test, gene mutation, Assay Code: MST+, Evaluation Type: Evaluation A (Pre-1980)): active; positive
call (Species/Cell Type: Nonhuman, Assay Code: CCGT, Evaluation Type: Evaluation A (Pre-1980)): no conclusion
mutagenic call (Species/Cell Type: Nonhuman, Assay Type: Sister-chromatid exchange (SCE) in vitro, Assay Code: SC2+D, Dose Response: With dose response, Evaluation Type: Evaluation A (Pre-1980)): active; positive
mutagenic call (Species/Cell Type: Saccharomyces cerevisiae, Assay Type: Forward gene mutation, Assay Code: YEFT, Evaluation Type: Evaluation A (Pre-1980)): no conclusion
mutagenic call [1]: active; positive
mutagenic call (Species/Cell Type: Saccharomyces cerevisiae, Assay Type: Mitotic recombination or gene conversion, Assay Code: YEH+, Evaluation Type: Evaluation A (Pre-1980)): active; positive
mutagenic call (Species/Cell Type: Salmonella typhimurium (one or more of the five standard strains: TA98, TA100, TA1535, TA1537, and TA1538), Assay Type: Histidine reverse gene mutation, Ames assay, Assay Code: SAL+*, Activation: With metabolic activation, Evaluation Type: Evaluation A (Pre-1980)): active; positive
mutagenic call (Species/Cell Type: Salmonella typhimurium, Assay Type: Forward and reverse gene mutation, host-mediated assay, Assay Code: HMA+, Evaluation Type: Evaluation A (Pre-1980)): active; positive
mutagenic call (Species/Cell Type: Syrian hamster embryo (SA7/SHE) cells, Assay Type: Cell transformation, viral enhanced, Assay Code: CT7+, Evaluation Type: Evaluation A (Pre-1980)): active; positive
mutagenic call (Species/Cell Type: Syrian hamster embryo (SHE) cells, Assay Type: Cell transformation, clonal assay, Assay Code: CTCT, Evaluation Type: Evaluation A (Pre-1980)): no conclusion

CN(N=O)C(=O)N[C@@H]1O[C@H](CO)[C@H](O)[C@H](O)[C@H]1O
mutagenic call (Species/Cell Type: Chinese hamster lung (V79) cells, Assay Type: Forward gene mutation at the HPRT or ouabain locus, Assay Code: V79+, Evaluation Type: Evaluation A (Pre-1980)): active; positive

Cc1cc2nc3cc(C)c(N)cc3[n+](-c3ccccc3)c2cc1N
mutagenic call (Species/Cell Type: Bacillus subtilis (H17 vs M45), Assay Type: Rec-assay, spot test, DNA effects (bacterial DNA repair), Assay Code: REWT, Evaluation Type: Evaluation A (Pre-1980)): no conclusion

Cc1c2ccccc2c2ccc3cccc4ccc1c2c43
mutagenic call (Species/Cell Type: Chinese hamster lung (V79) cells, Assay Type: Forward gene mutation at the HPRT or ouabain locus, Assay Code: V79+*, Activation: With metabolic activation, Evaluation Type: Evaluation A (Pre-1980)): active; positive
call [2]: active; positive

C#CC(C)N(C(=O)CCl)c1ccccc1 (stereo not given)
mutagenic call [3]: inactive; negative

CC1(C)S[C@@H]2[C@H](NC(=O)[C@H](N)c3ccccc3)C(=O)N2[C@H]1C(=O)O
mutagenic call (Species/Cell Type: Escherichia coli polA (W3119 vs P3478), Assay Type: Rec-assay, DNA effects (bacterial DNA repair), Assay Code: RE1-, Evaluation Type: Evaluation A (Pre-1980)): inactive; negative

OC1c2cccc3ccc4cc5ccccc5c(c4c23)C1O (stereo not given)
mutagenic call (Species/Cell Type: Chinese hamster lung (V79) cells, Assay Type: Forward gene mutation at the HPRT or ouabain locus, Assay Code: V79-, Evaluation Type: Evaluation A (Pre-1980)): inactive; negative

CC(=O)OC1C2OC2C2=CC(O)C3(CC2(C)C1C)OC3(C)CO (stereo not given)
mutagenic call [3]: inactive; negative

c1ccc2c(c1)ccc1nc3c(ccc4ccccc43)cc12
mutagenic call (Species/Cell Type: Fischer rat embryo (RLV/1706) cells, Assay Type: Cell transformation, viral enhanced, Assay Code: CTR+, Evaluation Type: Evaluation A (Pre-1980)): active; positive
call [2]: active; positive

C#C[C@]1(O)CC[C@H]2[C@@H]3CCC4=CC(=O)CC[C@@H]4[C@H]3CC[C@@]21C
mutagenic call (Species/Cell Type: Human, Sex: Male, Assay Type: Sperm morphology, Assay Code: SPH+, Evaluation Type: Evaluation A (Pre-1980)): active; positive
call [2]: active; positive

CC(=O)Nc1nc(NC(C)=O)nc(-c2ccc([N+](=O)[O-])o2)n1
mutagenic call [4]: active; positive

CC(C)Oc1ccccc1OC(=O)N(C)N=O
mutagenic call (Species/Cell Type: Bacillus subtilis (H17 vs M45T), Assay Type: Rec-assay, spot test, DNA effects (bacterial DNA repair), Assay Code: REX+, Evaluation Type: Evaluation A (Pre-1980)): active; positive
mutagenic call (Species/Cell Type: Escherichia coli WP2, Assay Type: Tryptophan reverse gene mutation, Assay Code: WP2+, Evaluation Type: Evaluation A (Pre-1980)): active; positive
mutagenic call [1]: active; positive
mutagenic call [4]: active; positive

Reference: PubChem BioAssay AID1259408 (Genetic Toxicology Data Bank (GENE-TOX), 2018)
